{"source": "patent US10857146B2", "about": "“Method for preventing or treating tumor diseases with a combination of tyrosine kinase inhibitor and CDK4/6 inhibitor” (Jiangsu Hengrui Medicine Co., Ltd., priority 2018, dated 2020)", "key": {"[1]": {"tested_on": "C019 (HER2 inhibitor-sensitive gastric cancer PDX model)", "experiment": "Drug resistance test in HER2 inhibitor-sensitive gastric cancer PDX model (C019)", "type": "in vivo", "conditions": "C019 mice, 40 mg/kg intragastrically once a day", "excerpt": "(§1) A large-scale patient-derived tumor xenograft (PDX) model was constructed with a small amount of advanced gastric cancer tissue obtained by real-time endoscopic biopsy, thereby establishing a PDX tissue library. The PDX tissue was taken from the PDX tissue library, revived and inoculated subcutaneously into the mice. […] The tumor tissue was separated, and re-inoculated into new mice. […] C019 represents the mice one month after subcutaneous inoculation of the revived PDX tissue, S019 represents the mice two weeks after the administration of the compound of formula (I) at a single dose of 20 mg/kg, and R019 represents the mice three months after the administration of the compound of formula (I) in a single dose of 40 mg/kg.\nProtocol of the drug resistance test: the inhibitor group was administrated with the compound of formula (I) (intragastrically, once a day, in a single dose of 40 mg/kg), and the control group was administrated with an equal volume of normal saline. The tumor volume was measured every three days. The result of drug sensitivity of C019 and R019 models is shown in FIG. 1 (average value of five mice)."}, "[2]": {"tested_on": "R019 (HER2 inhibitor-resistant gastric cancer PDX model)", "experiment": "Drug resistance test and combination administration in HER2 inhibitor-resistant gastric cancer PDX model (R019)", "type": "in vivo", "conditions": "R019 mice, 40 mg/kg intragastrically once a day"}, "[3]": {"tested_on": "advanced gastric cancer PDX tissue", "experiment": "Construction of HER2 inhibitor-resistant PDX model by prolonged administration", "type": "in vivo, mice", "excerpt": "as §1"}}}
{"smiles": "CCOc1cc2ncc(C#N)c(Nc3ccc(OCc4ccccn4)c(Cl)c3)c2cc1NC(=O)/C=C/[C@H]1CCCN1C", "note": "[compound of formula (I)]", "values": [{"measurement": "drug sensitivity of the model", "setting": "[1]", "result": "highly sensitive"}, {"measurement": "tumor inhibition rate", "setting": "[1]; average value of five mice", "result": "> 100", "unit": "%"}, {"measurement": "drug sensitivity of the model", "setting": "[2]", "result": "high resistance"}, {"measurement": "tumor response after prolonged administration", "setting": "[3]; 20 mg/kg intragastrically once a day for three months", "result": "resistance"}, {"measurement": "tumor response after prolonged administration", "setting": "[3]; re-inoculated tumor, 40 mg/kg intragastrically once a day for three months", "result": "complete resistance"}]}
